Test results: the supplement of paper PMC10331698
± gives the standard deviation of the averaged measurements.

Tests used:
Assay in all cases: level (log10 ratio to DMSO vehicle control); higher = higher biomarker level / cell amount than vehicle control
Details in all cases: in DMSO
[1] = compound: O=C(O)C(F)(F)C(F)(F)C(F)(F)C(F)(F)C(F)(F)C(F)(F)C(F)(F)C(F)(F)C(F)(F)C(F)(F)C(F)(F)C(F)(F)F [Perfluorotridecanoic acid]
Protocol: (§1)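 BioMAP Diversity Plus panel of 12 human primary cell co-culture systems (3C, 4H, LPS, SAg, BT, BF4T, BE3C, CASM3C, HDF3CGF, KF3CT, MyoF, Mphg). Compounds were added 1 h before stimulation and left for 24 h (MyoF 48 h; BT 72 h for soluble read-outs or 6 d for IgG). Biomarkers were read by ELISA, cytotoxicity by SRB, PBMC viability and proliferation by Alamar Blue. Each well value was divided by the mean of 8 DMSO control wells on the same plate and log10 transformed; duplicate blinded samples were tested at 4 concentrations.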

[2] = compound: O=C(O)C(F)(F)C(F)(F)C(F)(F)C(F)(F)C(F)(F)C(F)(F)C(F)(F)C(F)(F)C(F)(F)C(F)(F)C(F)(F)C(F)(F)C(F)(F)F [Perfluorotetradecanoic acid]
Protocol: as §1

[3] = compound: O=S(=O)(O)C(F)(F)C(F)(F)C(F)(F)C(F)(F)F [Perfluorobutanesulfonic acid]
Protocol: as §1

Azathioprine = compound: Cn1cnc([N+](=O)[O-])c1Sc1ncnc2[nH]cnc12 [Azathioprine]
Protocol: as §1

[4] = compound: O=C(O)C(F)(F)OC(F)(F)C(F)(F)OC(F)(F)C(F)(F)C(F)(F)C(F)(F)F [Perfluoro-3,6-dioxadecanoic acid]
Protocol: as §1

Perfluorooctanamidine = compound: N=C(N)C(F)(F)C(F)(F)C(F)(F)C(F)(F)C(F)(F)C(F)(F)C(F)(F)F [Perfluorooctanamidine]
Protocol: as §1

Test System	level (log10) ([1]; 1500 nM)	level (log10) ([1]; 4400 nM)	level (log10) ([1]; 13000 nM)	level (log10) ([1]; 40000 nM)	level (log10) ([2]; 6700 nM)	level (log10) ([2]; 20000 nM)	level (log10) ([3]; 6700 nM)	level (log10) ([3]; 20000 nM)	level (log10) ([3]; 60000 nM)	level (log10) (Azathioprine; 1400 nM)	level (log10) (Azathioprine; 4200 nM)	level (log10) (Azathioprine; 13000 nM)	level (log10) (Azathioprine; 38000 nM)	level (log10) ([4]; 6700 nM)	level (log10) ([4]; 20000 nM)	level (log10) ([4]; 60000 nM)	level (log10) (Perfluorooctanamidine; 6700 nM)	level (log10) (Perfluorooctanamidine; 20000 nM)	level (log10) (Perfluorooctanamidine; 60000 nM)
BE3C:MMP-1	-0.014 ± 0.035	0.0385 ± 0.05	0.0445 ± 0.043	0.0615 ± 0.028	0.015 ± 0.025	0.0505 ± 0.059	0.0055 ± 0.028	-0.011 ± 0.0057	0.019 ± 0.013	-0.0025 ± 0.013	0.001 ± 0.0057	-0.0235 ± 0.019	-0.0645 ± 0.0021	0.067 ± 0.0014	0.172 ± 0.0035	0.355 ± 0.021	0.0525 ± 0.03	0.057 ± 0.044	0.262
HDF3CGF:CXCL9/MIG	-0.04 ± 0.03	-0.136 ± 0.12	-0.119 ± 0.043	-0.138 ± 0.073	0.0075 ± 0.025	-0.001 ± 0.0042	-0.01 ± 0.0085	-0.0145 ± 0.0092	-0.0035 ± 0.005	-0.002 ± 0.018	-0.0215 ± 0.013	-0.026 ± 0.02	-0.0645 ± 0.005	-0.0175 ± 0.0064	-0.046 ± 0.092	-0.126	0.0055 ± 0.023	-0.003 ± 0.018	0.018
lMphg:CCL2/MCP-1	-0.0115 ± 0.018	0.001 ± 0.017	-0.004 ± 0.023	0.0275 ± 0.028	-0.013 ± 0.014	-0.004 ± 0.0099	0.0105 ± 0.0021	0.0105 ± 0.0078	0.0145 ± 0.025	0.0055 ± 0.025	-0.0005 ± 0.0092	-0.0315 ± 0.0078	-0.0755 ± 0.011	-0.024 ± 0.037	-0.0225 ± 0.023	-0.0435 ± 0.0092	-0.03 ± 0.016	-0.006 ± 0.0085	0.021
BE3C:SRB	0.0085 ± 0.019	-0.0035 ± 0.0021	-0.0055 ± 0.0078	0.0035 ± 0.0021	-0.005 ± 0.0057	0.0035 ± 0.012	0.001	-0.004 ± 0.0028	-0.003 ± 0.0014	0.013 ± 0.016	-0.005	-0.0095 ± 0.0078	-0.0045 ± 0.0092	-0.0015 ± 0.0064	-0.0095 ± 0.013	-0.0435 ± 0.022	-0.0075 ± 0.005	-0.001 ± 0.016	0.009
MyoF:MMP-1	-0.0005 ± 0.021	0.018 ± 0.016	-0.025 ± 0.0099	0.014 ± 0.02	-0.0305 ± 0.015	0.002 ± 0.017	0.0385 ± 0.005	0.065 ± 0.0071	0.0885 ± 0.0035	0.0065 ± 0.047	0.0165 ± 0.019	-0.0215 ± 0.021	0.0315 ± 0.0021	-0.003 ± 0.0085	-0.03 ± 0.024	0.0505 ± 0.0064	-0.025 ± 0.024	-0.01	0.062
